Test results: ChEMBL document CHEMBL1201862, “PubChem BioAssay data set” (2004)
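1) Cells in 96-well plates. 2) Compound, 48 h, 5 concentrations. 3) Linear interpolation between surrounding doses. 4) Unreached endpoint = highest concentration. Abbreviation: GI50, concentration required for 50% inhibition of growth.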 Activity calls are given as the source filed them. No stated cut-off is given here; in the data, active = GI50 up to about 1.1 µM and inactive = higher.

What was measured:
Experiment in all cases: NCI anticancer screen, dose series, 48 h
MDA-MB-231 = test system: MDA-MB-231
HOP-62 = test system: HOP-62
CCRF-CEM = test system: CCRF-CEM
DLD-1 = test system: DLD-1
SNB-19 = test system: SNB-19
OVCAR-4 = test system: OVCAR-4
LOX IMVI = test system: LOX IMVI
NCI-H460 = test system: NCI-H460
UACC-257 = test system: UACC-257
SN12C = test system: SN12C
SR = test system: SR
786-0 = test system: 786-0
HT-29 = test system: HT-29
TK-10 = test system: TK-10
PC-3 = test system: PC-3
HCT-116 = test system: HCT-116
Hs-578T = test system: Hs-578T
NCI/ADR-RES = test system: NCI/ADR-RES
HL-60 = test system: HL-60
MDA-N = test system: MDA-N

Measured: GI50

N#C/C(=C\c1cc(O)c(O)c(O)c1)C(N)=O
inactive: MDA-MB-231 > 66.5 µM | HOP-62 > 87.3 µM | CCRF-CEM 38.3 µM | DLD-1 > 100 µM | SNB-19 > 100 µM | OVCAR-4 74.8 µM | LOX IMVI 41.3 µM | NCI-H460 > 79.3 µM | UACC-257 > 100 µM | SN12C > 84.3 µM | SR > 47.5 µM | 786-0 54.6 µM | HT-29 > 92.7 µM | TK-10 > 100 µM | PC-3 > 22.2 µM | HCT-116 > 70.1 µM | Hs-578T > 100 µM | NCI/ADR-RES > 93.1 µM | HL-60 37.8 µM | MDA-N > 62.4 µM

Cc1ccc(C(=O)Oc2ccccc2)cc1/N=N/N(C)C
inactive: MDA-MB-231 > 100 µM | HOP-62 > 100 µM | CCRF-CEM 91.8 µM | DLD-1 > 100 µM | SNB-19 > 92.3 µM | OVCAR-4 > 86.9 µM | LOX IMVI 59.8 µM | NCI-H460 > 100 µM | UACC-257 > 100 µM | SN12C > 100 µM | SR > 100 µM | 786-0 > 100 µM | HT-29 37.1 µM | TK-10 > 100 µM | PC-3 > 100 µM | HCT-116 > 100 µM | Hs-578T > 100 µM | NCI/ADR-RES > 100 µM | HL-60 78 µM | MDA-N > 100 µM
